Test results taken from patent publication US20250154554A1, “ANTIMICROBIAL SUSCEPTIBILITY” (priority 2022, published 2025).
Where two headings read alike, the source gives them in different places.

What was measured:
[1] = tested on: Gram-negative bacteria (Enterobacterales, Pseudomonas, Acinetobacter); details: for CLSI RM R / EUCAST RM R: number of strains resistant; for CLSI RM S / EUCAST RM S: number of strains susceptible; for CLSI RM I: number of strains I
Method: (§1) For Colistin (on gram-negative bacteria) and vancomycin (in the case of Staphylococcus), the method used to determine the antimicrobial susceptibility was broth microdilution [5]. […] Standard methodologies were performed from the same inoculum used to spike the blood cultures. Quality control of the reference methods was also performed according to the recommendations of EUCAST and CLSI.
(§2) All the strains were classified as S, I or R according the reference methods. MIC was determined for vancomycin and colistin. The presence of ESBL on Enterobacterales group I, together with the screening for ESBL on Enterobacterales group II, and the screening for AmpC and presence of carbapenemases according EUCAST protocol for detection of mechanisms of resistance were also performed.
(§3) Positive blood cultures were spiked in blood agar and colonies identified and submitted to antimicrobial susceptibility assay according reference disk diffusion method and/or to MIC values determined by microdilution. The results were analysed using the most recent EUCAST breakpoint tables and the M100 (29th ed.) breakpoint tables from CLSI.

[2] = tested on: Gram-positive bacteria (Staphylococcus spp, Enterococcus spp); assay: Reference method (RM): disk diffusion and/or broth microdilution, S/I/R classification, Gram-positive strains; type: cell-based; details: for CLSI RM R / EUCAST RM R: number of strains resistant; for CLSI RM S / EUCAST RM S: number of strains susceptible;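 for all read-outs here: susceptibility categories assigned with the latest EUCAST breakpoint tables or CLSI M100 29th edition breakpoints, with quality control of the reference methods following EUCAST and CLSI guidance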
Method: as §1, §2, §3

[3] = CLSI, total of 3 sites, blood cultures
[4] = EUCAST, total of 3 sites, blood cultures
[5] = CLSI, FASTinov, Porto, spiked on blood cultures
[6] = CLSI, Hospital Ramon et Cajal, Madrid, patients' blood cultures
[7] = CLSI, Hospital S. João, Porto, patients' blood cultures
[8] = EUCAST, FASTinov, Porto, spiked on blood cultures
[9] = EUCAST, Hospital Ramon et Cajal, Madrid, patients' blood cultures
[10] = EUCAST, Hospital S. João, Porto, patients' blood cultures
[11] = CLSI, FASTinov, Porto, spiked blood cultures
[12] = EUCAST, FASTinov, Porto, spiked blood cultures
[13] = CLSI, Hospital Ramon et Cajal, Madrid, patients blood cultures
[14] = EUCAST, Hospital Ramon et Cajal, Madrid, patients blood cultures

| Compound | RM R (strains resistant by reference method) [1, 3] | RM S (strains susceptible by reference method) [1, 3] | RM R (strains resistant by reference method) [1, 4] | RM S (strains susceptible by reference method) [1, 4] | CLSI RM R [1, 5] | CLSI RM R [1, 6] | CLSI RM R [1, 7] | EUCAST RM R [1, 8] | EUCAST RM R [1, 9] | EUCAST RM R [1, 10] | CLSI RM S [1, 5] | CLSI RM S [1, 6] | CLSI RM S [1, 7] | EUCAST RM S [1, 8] | EUCAST RM S [1, 9] | EUCAST RM S [1, 10] | RM R (strains resistant by reference method) [2, 12] | EUCAST RM R [2, 14] | other results |
| --- | --- | --- | --- | --- | --- | --- | --- | --- | --- | --- | --- | --- | --- | --- | --- | --- | --- | --- | --- |
| CO/N=C(\C(=O)N[C@@H]1C(=O)N2C(C(=O)O)=C(COC(C)=O)CS[C@H]12)c1csc(N)n1 [Cefotaxime] | 75 | 156 | 75 | 156 | 54 | 13 | 8 | 54 | 13 | 8 | 27 | 61 | 68 | 27 | 61 | 68 |  |  |  |
| Ceftazidime-avibactam | 8 | 307 | 8 | 307 | 8 | 1 |  | 8 |  |  | 145 | 81 | 81 | 145 | 81 | 81 |  |  |  |
| Gentamicin [Gentamicin high level] |  |  |  |  |  |  |  |  |  |  |  |  |  |  |  |  | 12 | 2 | RM R (strains resistant by reference method) [2, 11]: 12; RM S (strains susceptible by reference method) [2, 11]: 35; RM R (strains resistant by reference method) [2, 3]: 15; RM S (strains susceptible by reference method) [2, 3]: 51; RM S (strains susceptible by reference method) [2, 12]: 35; RM R (strains resistant by reference method) [2, 4]: 15; RM S (strains susceptible by reference method) [2, 4]: 51; CLSI RM R [2, 13]: 2; CLSI RM R [2, 7]: 1; EUCAST RM R [2, 10]: 1; CLSI RM S [2, 13]: 10; CLSI RM S [2, 7]: 6; EUCAST RM S [2, 14]: 10; EUCAST RM S [2, 10]: 6 |
| C[C@@H](O)[C@H]1C(=O)N2C(C(=O)O)=C(SCCN=CN)C[C@H]12 [Imipenem] |  |  |  |  |  |  |  |  |  |  |  |  |  |  |  |  | 26 | 1 | RM I (strains intermediate by reference method) [2, 12]: 39; EUCAST RM I ([2]; number of strains I, EUCAST, Hospital Ramon et Cajal, Madrid, patients blood cultures): 12 |
| Cc1onc(-c2ccccc2)c1C(=O)N[C@@H]1C(=O)N2[C@@H]1SC(C)(C)[C@@H]2C(=O)O [Oxacillin] |  |  |  |  |  |  |  |  |  |  |  |  |  |  |  |  | 19 | 19 | RM R (strains resistant by reference method) [2, 11]: 19; RM S (strains susceptible by reference method) [2, 11]: 4; RM R (strains resistant by reference method) [2, 3]: 74; RM S (strains susceptible by reference method) [2, 3]: 14; RM S (strains susceptible by reference method) [2, 12]: 4; RM R (strains resistant by reference method) [2, 4]: 74; RM S (strains susceptible by reference method) [2, 4]: 14; CLSI RM R [2, 13]: 19; CLSI RM R [2, 7]: 36; EUCAST RM R [2, 10]: 36; CLSI RM S [2, 13]: 5; CLSI RM S [2, 7]: 5; EUCAST RM S [2, 14]: 5; EUCAST RM S [2, 10]: 5 |
| NCC[C@H](O)C(=O)N[C@@H]1C[C@H](N)[C@@H](O[C@H]2O[C@H](CN)[C@@H](O)[C@H](O)[C@H]2O)[C@H](O)[C@H]1O[C@H]1O[C@H](CO)[C@@H](O)[C@H](N)[C@H]1O [Amikacin] | 27 | 316 | 30 | 313 | 25 | 1 | 1 | 27 | 1 | 2 | 158 | 77 | 81 | 156 | 77 | 80 |  |  |  |
| Amoxacillin-clavulanic acid | 107 | 110 | 125 | 106 | 56 | 19 | 32 | 62 | 30 | 33 | 20 | 46 | 44 | 19 | 44 | 43 |  |  | RM I (strains intermediate by reference method) [1, 3]: 14; CLSI RM I [1, 5]: 5; CLSI RM I [1, 6]: 9 |
